The source of these data is patent US7531558B2, “Carboxamide derivatives” (Glaxo Group Limited, priority 2003, dated 2009).

This assay has as its system FCA-induced mechanical hyperalgesia. The assay can be described thus: FCA-induced hyperalgesia in the guinea pig (paw pressure, Randall-Sellito). The assay is classed as in vivo. The following applies: male Dunkin Hartley guinea-pigs; oral 3, 10, 30 mg/kg 24 h after intraplantar FCA; reading 1 hour after drug administration. The procedure:
100 μl of 1 mg/ml FCA was injected intraplantar into the left paw of 4 groups of 8 male Dunkin Hartley guinea-pigs (batch: 6282434, average weight 340 g). 24 hours later compounds were administered orally at 0 (vehicle), 3, 10 30 mg/kg with vehicle as 1% methylcellulose and dosing volume being 2 ml/kg and dosing straight into the stomach. The methylcellulose was added gradually to the compound into the pestle and mortar and ground together.
Behavioural readouts of mechanical hyperalgesia were obtained before FCA administration (naïve reading), after FCA but before drug administration (predose reading) and 1 hour after drug administration. The readout used was paw pressure (Randall-Sellito) and the end point was paw withdrawal. The paw pressure equipment also had one silver disc placed on the point to increase the markings by a factor of 2.
With `Cc1nc2cc(NC(=O)c3ccc(-c4ccc(F)cc4F)nc3C)ccc2s1` [Example 2, 6-(2,4-Difluorophenyl)-2-methyl-N-(2-methylbenzothiazol-5-yl)-nicotinamide], the “activity in FCA-induced mechanical hyperalgesia (paw withdrawal)” value is listed as “active”.
The same measure for `Cc1nc2cc(NC(=O)c3ccc(-c4ccc(F)cc4)nc3C)ccc2s1` [Example 1, 6-(4-Fluorophenyl)-2-methyl-N-(2-methylbenzothiazol-5-yl)nicotinamide]: “active”; for `Cc1nc(-c2ccc(F)cc2)ccc1C(=O)Nc1ccc2scnc2c1` [Example 4, N-Benzothiazol-5-yl-6-(4-fluorophenyl)-2-methyl-nicotinamide]: “active”; for `Cc1nc2cc(NC(=O)c3ccc(-c4ccc(F)c(F)c4)nc3C)ccc2s1` [Example 3, 6-(3,4-Difluorophenyl)-2-methyl-N-(2-methylbenzothiazol-5-yl)-nicotinamide]: “active”.
The same measure for `Cc1nc2cc(NC(=O)c3ccc(-c4cccc(F)c4F)nc3C)ccc2s1` [Example 5, 6-(2,3-Difluorophenyl)-2-methyl-N-(2-methylbenzothiazol-5-yl)-nicotinamide]: “active”; for `Cc1nc2cc(NC(=O)N3CCN(c4ccccc4F)CC3)ccc2s1` [Example 16, 4-(2-Fluorophenyl)-N-(2-methylbenzothiazol-5-yl)-1-piperazine carboxamide]: “active”.
